Reference: patent publication US20230391779A1, “BICYCLIC COMPOUNDS, COMPOSITIONS AND USE THEREOF” (Betta Pharmaceuticals Co., Ltd., priority 2020, published 2023)

Columns and labels:
TEAD-YAP/TAZ interaction = assay: CTGF ELISA assay; type: cell-based, human; details: CTGF in culture supernatant of NCI-H2052 cells, 24 hours with compound
Method in brief: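 NCI-H2052 cells treated 24 h at 37 °C with compound (10000–0.61 nM, 0.5% DMSO); secreted CTGF in supernatant measured by sandwich ELISA (OD 450 nm) against a standard curve. EC50 fitted from CTGF concentration-response curves.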

NCI-H226 cells = assay: BRDU assay (cell proliferation); type: cell-based; details: Homo sapiens, proliferation inhibition, 1% FBS medium
Description: PerkinElmer's DELFIA® Cell proliferation kit (PerkinElmer, Cat: AD0200) was used to detect the inhibition on the proliferation of NCI-H226 cells (ATCC, CRL-5826). • a) Seeded 1500/well for NCI-H226 cell into a 96-well plate. • b) After 24 hours, compound was added to wells with 1% FBS medium conditions. The final testing concentrations of test compounds were […]. • c) NCI-H226 cells were incubated for 72 hours in incubator. • d) Diluted BrdU Labeling Reagent 100-fold with medium and added […] per well. The NCI-H226 cells were incubated 24 h in 5% CO2 at 37° C. incubator. • e) Detect cell proliferation according BrdU kit, and the luminescence signal value of each well on the multifunctional microplate reader was readed.
Data analysis: • Use GraphPad Prism 6 software to calculate IC50 and plot effect-dose curve of compounds.
Y=Bottom+(Top−Bottom)/(1+10^((LogIC50−X)×HillSlope)). • Y was the inhibition %, • X was the log concentration of compounds.
Inhibition %=(signalHC−signalcomp)/(signalHC−signalLC); • HC (high control) was DMSO group, • LC (low control) was 10 uM staurosporine group, • Comp was administration group.
IC50 data obtained for the Example compounds are provided in Table 7, and the inhibition curve in NCI-H226 cell line are as shown in FIG. 1-7, wherein X axis is compound concentration (nm), Y axis is the inhibition %.

[1] = system: NCI-H226 human lung squamous cell carcinoma xenograft; assay: In vivo efficacy, subcutaneous NCI-H226 xenograft model; parameters: species or system BALB/c nude mice; details: QD, oral, tumor volume at day 28
Description: In vivo pharmacodynamic and efficacy studies of compound 5, compound 6, and compound 124 in the subcutaneous NCI-H226 human lung squamous cell carcinoma xenograft model on BALB/c nude mice.
(§1) Each mouse (D000521 BALB/c-Nu, GemPharmatech Co., Ltd.) was inoculated subcutaneously at the right flank with NCI-H226 tumor cells (ATCC, CRL-5826) (1×107) in 0.2 mL of PBS with Matrigel (Corning, 356234) (1:1) for tumor development. Treatments were started when the average tumor size reached approximately 100-150 mm3. The test article was administered to the mice orally once a day from the day of grouping, total 28 days (QD×28 Days). Body weight change of animals was monitored regularly as an indicator of drug safety. Tumor volumes were measured twice weekly in two dimensions using a caliper, and the volume was expressed in mm3 using the formula “V=(LλW^2)/2”, where V is the tumor volume, L is the tumor length (the longest tumor dimension) and W is the tumor width (the longest tumor dimension perpendicular to L). Therapeutic efficacy was evaluated by tumor growth inhibition TGI (%)·TGI (%)=[1−(Ti−T0)/(Vi−V0)]×100; Ti is the average tumor volume of a treatment group on a given day, TO is the average tumor volume of the treatment group on day 0, Vi is the average tumor volume of the vehicle control group on the same day with Ti, and V0 is the average tumor volume of the vehicle group on day 0.

[2] = Body weight change in NCI-H226 xenograft model; type: in vivo, BALB/c nude mice; details: daily oral dosing, 28 days, mice bearing NCI-H226 tumor
Description: as §1

[3] = Pharmacokinetics in plasma following PO cassette dosing in mice; type: in vivo; details: mouse, Balb/C female mice, 5 mg/kg; for AUC: blood collection 30 min, 2 h, 4 h
Description: Adult Balb/C female mice (6-7 weeks, Vitalriver) were received to cassette dosing of the test compounds with 10-20% DMSO, 10% Solutol (Kolliphor HS 15, Beijing Fengli Jingqiu Pharmaceutical Co., Ltd.) and 80-70% H2O as excipients. The mice (n=3) were giving oral administration (intragastric administration) at a dose of 5 mg/kg. Time of blood collection: 30 min, 2 h, 4 h. About 0.1 mL of whole blood was collected from retro-orbital venous plexus, and placed into tubes that contained EDTA as an anticoagulant. The samples were centrifuged at 4° C. and 4000 rpm for 10 min. The plasma was transferred into centrifuge tubes, and stored at −20° C. before being analyzed. Concentrations of test compounds in the plasma samples were analyzed with liquid chromatography-tandem mass spectrometry (LC-MS/MS). Plasma concentration-time data of individual animals was analyzed using Microsoft Excel 2010. Non-compartmental model was introduced in concentration analysis. The pharmacokinetic parameters of the test compounds were calculated using WinNonlin (version 4.1; Pharsight) software.

Structure (SMILES) | EC50 (TEAD-YAP/TAZ interaction) | IC50 (NCI-H226 cells) | Cmax [3] | AUC [3] | TGI (%) ([1]; 2 mg/kg) | body weight loss [2] | TGI (%) ([1]; 0.5 mg/kg) | TGI (%) ([1]; 10 mg/kg) | TGI (%) ([1]; 50 mg/kg)
C=C(F)C(=O)N1CC(n2nc(-c3ccc(C(F)(F)F)nc3)c3ncccc32)C1 [Compound 132, 2-fluoro-1-(3-(3-(6-(trifluoro-methyl)pyridin-3-yl)-1H-pyrazolo[4,3-b]pyridin-1-yl)-azetidin-1-yl)prop-2-en-1-one] | 6 nM | 12.7 nM | – | – | – | – | – | – | –
C=C(F)C(=O)N1CC(n2nc(-c3ccc(C(F)(F)F)cc3)c3ncn(C)c(=O)c32)C1 [Compound 80, 1-(1-(2-fluoroacryloyl)azetidin-3-yl)-6-methyl-3-(4-(trifluorometh-yl)phenyl)-1,6-dihydro-7H-pyrazolo[4,3-d]pyrimidin-7-one] | 2 nM | 2.32 nM | – | – | – | – | – | – | –
C=C(F)C(=O)N1CC(n2nc(-c3ccc(C(F)(F)F)cc3)c3cccnc32)C1 [Compound 5, 2-fluoro-1-(3-(3-(4-(trifluoromethyl)phenyl)-1H-pyrazolo[3,4-b]pyridin-1-yl)azetidin-1-yl)prop-2-en-1-one] | 3 nM | 5.33 nM | – | – | 76.9% | no significant body weight loss | 40.3% | 101.3% | 105.9%
C=C(F)C(=O)N1CC(n2nc(-c3ccc(C(F)(F)F)cc3)c3ncccc32)C1 [Compound 6, 2-fluoro-1-(3-(3-(4-(trifluoromethyl)phenyl)-1H-pyrazolo[4,3-b]pyridin-1-yl)azetidin-1-yl)prop-2-en-1-one] | 2 nM | 140 nM | – | – | 77.1% | no significant body weight loss | – | 88.6% | –
C=C(F)C(=O)N1CC(n2nc(-c3ccc(C(F)(F)F)nc3C)c3cccnc32)C1 [Compound 182, 2-fluoro-1-(3-(3-(2-methyl-6-(trifluoromethyl)pyridin-3-yl)-1H-pyrazolo[3,4-b]pyridin-1-yl)azetidin-1-yl)prop-2-en-1-one] | 0.394 nM | – | 2160 ng/mL | 7410 ng·h/mL | – | – | – | – | –
C=CC(=O)N1CC(n2nc(-c3ccc(C(F)(F)F)cc3)c3cccnc32)C1 [Compound 30, 1-(3-(3-(4-(trifluoromethyl)phen-yl)-1H-pyrazolo[3,4-b]pyridin-1-yl)azetidin-1-yl)prop-2-en-1-one] | 12 nM | 55.7 nM | – | – | – | – | – | – | –
C=CC(=O)N1CCC(n2nc(-c3ccc(C(F)(F)F)cc3)c3nc(OC)ccc32)C1 (stereo not drawn) [Compound 89, 1-(3-(5-methoxy-3-(4-(trifluoro-methyl)phenyl)-1H-pyrazolo[4,3-b]pyridin-1-yl)pyrrolidin-1-yl)-prop-2-en-1-one] | 12 nM | – | 1970 ng/mL | 6480 ng·h/mL | – | – | – | – | –
C=C(C)C(=O)N1CC(n2nc(-c3ccc(C(F)(F)F)cc3)c3cccnc32)C1 [Compound 73, 2-methyl-1-(3-(3-(4-(trifluoro-methyl)phenyl)-1H-pyrazolo[3,4-b]pyridin-1-yl)azetidin-1-yl)prop-2-en-1-one] | 7 nM | 114 nM | 1190 ng/mL | 4070 ng·h/mL | – | – | – | – | –

Second part, led by results:

EC50 (TEAD-YAP/TAZ interaction) | IC50 (NCI-H226 cells) | Cmax [3] | AUC [3] | Structure (SMILES) | TGI (%) ([1]; 2 mg/kg) | body weight loss [2] | TGI (%) ([1]; 0.5 mg/kg) | TGI (%) ([1]; 10 mg/kg) | TGI (%) ([1]; 50 mg/kg)
30.4 nM | 19.5 nM | – | – | C=CC(=O)N1CCC(n2nc(-c3ccc(C(F)(F)F)cc3)c3ccccc32)C1 (stereo not drawn) [Compound 3, 1-(3-(3-(4-(trifluoromethyl)phenyl)-1H-indazol-1-yl)pyrrolidin-1-yl)prop-2-en-1-one] | – | – | – | – | –
14 nM | 20.7 nM | 7190 ng/mL | 24300 ng·h/mL | C=C(F)C(=O)N1CC(n2nc(-c3ccc(C(F)(F)F)nc3)c3cccnc32)C1 [Compound 124, 2-fluoro-1-(3-(3-(6-(trifluoro-methyl)pyridin-3-yl)-1H-pyrazolo[3,4-b]pyridin-1-yl)-azetidin-1-yl)prop-2-en-1-one] | 67.3% | no significant body weight loss | – | – | –
14 nM | – | 1520 ng/mL | 5060 ng·h/mL | C=CC(=O)N1CCC(n2nc(-c3ccc(C(F)(F)F)nc3)c3cccc(C(=O)NC4CC(F)(F)C4)c32)C1 (stereo not drawn) [Compound 104, 1-(1-acryloylpyrrolidin-3-yl)-N-(3,3-difluorocyclobutyl)-3-(6-(trifluoromethyl)pyridin-3-yl)-1H-indazole-7-carboxamide] | – | – | – | – | –
3.6 nM | – | 1420 ng/mL | 4640 ng·h/mL | C=CC(=O)N1CCC(n2nc(-c3ccc(C(F)(F)F)cc3)c3ncccc32)C1 (stereo not drawn) [Compound 26, 1-(3-(3-(4-(trifluoromethyl)phen-yl)-1H-pyrazolo[4,3-b]pyridin-1-yl)pyrrolidin-1-yl)prop-2-en-1-one] | – | – | – | – | –
15 nM | – | 721 ng/mL | 2510 ng·h/mL | C=CC(=O)N1CCC(n2nc(-c3ccc(C(F)(F)F)cc3)c3ccc(C)cc32)C1 (stereo not drawn) [Compound 47, 1-(3-(6-methyl-3-(4-(trifluoro-methyl)phenyl)-1H-indazol-1-yl)-pyrrolidin-1-yl)prop-2-en-1-one] | – | – | – | – | –
